From PMC5234788 (PLoS ONE, 2017)

Legend:
Assay type in all cases: in vivo
male CD-1 ICR mice [1] = test: Locomotor activity test; conditions: DZP 2 mg/kg, i.p., 60 min
Source text: The spontaneous activity video analysis system consists of 8 sound-attenuated chambers (40 cm × 40 cm × 65 cm) with a built-in infrared camera. (JL Behave, Shanghai Ji-Liang Software Technology Co., Ltd). During the behavioral tests, the experimenter was outside the testing room, and the chambers were cleaned between successive runs. Forty male CD-1 ICR mice were allowed to acclimate for three days in home cages and were handled for another three days to minimize stress after arrival in the animal facility. On the following day, after habituation to the activity chambers for 60 min, mice were administered vehicle, diazepam (DZP, 2 mg/kg, i.p.) or l–THBr (1, 5, or 10 mg/kg, i.p.) and immediately placed into the test chambers to record their locomotor activity for 60 min.

male CD-1 ICR mice [2] = test: Elevated plus-maze test; conditions: DZP 2 mg/kg, i.p., P < 0.05 vs control
Source text: The elevated plus-maze test is widely used for the screening and evaluation of anxiolytic drugs. The apparatus consists of two open arms (30 cm × 5 cm) and two enclosed arms (30 cm × 5 cm × 15 cm), which is elevated 45 cm above the ground. The entire maze was made of clear Plexiglas and illuminated by four 30 W white lights with 300 lx light intensity arranged as a cross 100 cm above the maze. 48 male CD-1 ICR mice were randomly divided into either the vehicle group, one of three doses of l–THBr groups, or the diazepam group. 30 min after injection, mice were gently placed on the center platform facing an open arm, and the number of entries and the time spent in both arms were recorded by a video camera for 5 min. The results were expressed as the percentage of entries into the open arms (%) = (the number of entries into the open arms / the total number of entries into the four arms) × 100%; and the percentage of time spent in the open arms (%) = (time spent in the open arms / total time spent in the four arms) × 100%.
In a separate experiment, WAY100635 (a 5-HT1A antagonist) was used to test whether the anxiolytic-like activity of l-THBr is mediated by the activation of the 5-HT1A receptor. Forty male CD-1 ICR mice were randomly divided into one of four groups: vehicle, WAY100635 (3 mg/kg, i.p.), l–THBr (5 mg/kg, i.p.) or WAY100635 (3 mg/kg, i.p.) + l–THBr (5 mg/kg, i.p.). Mice were administered vehicle or WAY100635 followed by vehicle or l–THBr (5 mg/kg) injections 15 min later. The test was performed 30 min after the administration of l-THBr or vehicle.

male CD-1 ICR mice [3] = test: Light-dark box test; conditions: DZP 2 mg/kg, 30 min before test, P < 0.05 vs vehicle
Source text: The light-dark box test is a sensitive model to detect activity in disorders related to anxiety, based on the innate aversion of rodents to brightly lit areas and on their spontaneous exploratory behavior in response to a novel environment. The light-dark transition box is a polypropylene animal cage (44 cm × 21 cm × 21 cm), which is divided into two compartments, a light box (illuminated by a 60 W light source with 1000 lx light intensity) and a dark box. Forty-eight male CD-1 ICR mice were placed in the light box 30 min after l–THBr or DZP injection and allowed to move freely to both boxes for 5 min. The number of transitions between the two boxes were recorded by a video camera.

Question: What does the source list for `CN1C(=O)CN=C(c2ccccc2)c2cc(Cl)ccc21` [Diazepam, reference compound]?
Answer: influence on locomotor activity (travel distance) (male CD-1 ICR mice [1]): no influence; percentage of entries into the open arms (male CD-1 ICR mice [2]): significant increase; percentage of time spent in the open arms (male CD-1 ICR mice [2]): significant increase; number of transitions between the light/dark sides (male CD-1 ICR mice [3]): increased
